From ChEMBL document CHEMBL1156829 (Proc Natl Acad Sci U S A, 2008) come the findings set out here.

Several values for one entry are separate records, joined by “and”; a condition that tells them apart may be missing. Identical values can stand only once.

The subject of one data set is Huh-7. As to the kind of experiment: NOVARTIS: Cytotoxicity against human hepatocellular carcinoma cell line (Huh7). The class given is toxicity, cell-based.
Data set [1] has as its system Plasmodium falciparum. The data set is described as follows: NOVARTIS: Inhibition of Plasmodium falciparum 3D7 (drug-susceptible) proliferation in erythrocyte-based infection assay. The class given is functional, organism-based.
In data set [2] the test system is Plasmodium falciparum. The data set is described as follows: NOVARTIS: Inhibition of Plasmodium falciparum W2 (drug-resistant) proliferation in erythrocyte-based infection assay. The class given is functional, organism-based. As to conditions: read-out: EC50.

A word on the CC50: it is the concentration that lowers cell viability or growth by half. As a reminder, the EC50 is the concentration that produces a half-maximal response. Regarding `Cc1[nH]c2ccccc2c1/C=C/c1cc[n+](C)cc1`, in the data set on Huh-7 (huh-7, read-out: CC50), the half-maximal cytotoxic concentration (CC50) is over 100000 nM. Further, the EC50 stood at 175 nM with Plasmodium falciparum [1] and 215 nM with Plasmodium falciparum [2].

For `CC[n+]1c(/C=C/c2ccc(N(C)C)cc2)sc2cc(NC(C)=O)ccc21`, in the data set on Huh-7 (huh-7, read-out: CC50), the CC50 was over 100000 nM. Also, the EC50 in the data set on Plasmodium falciparum [1] was 1500 nM; in the data set on Plasmodium falciparum [1] (Plasmodium falciparum, 3D7), 953 nM; in the data set with Plasmodium falciparum [2], 686 nM and 341 nM.

Take `Cc1cc(=O)n(-c2nc(-c3ccccc3O)nc3ccccc23)[nH]1`: in the data set with Huh-7 (huh-7), the CC50 entry is given as “No fit”. Moreover, the EC50 in the data set on Plasmodium falciparum [1] (Plasmodium falciparum, 3D7) is 824 nM; with Plasmodium falciparum [2] (Plasmodium falciparum, W2) it was 752 nM.

As for `CCN1/C(=C/c2sc3ccccc3[n+]2CC)Sc2ccccc21` [listing 1 of 2 here], the CC50 in the data set with Huh-7 (huh-7, read-out: CC50) came to 32600 nM. Moreover, the EC50 worked out at 557 nM in the data set on Plasmodium falciparum [1] and 248 nM with Plasmodium falciparum [2].

With `CCN1/C(=C/c2sc3ccccc3[n+]2CC)Sc2ccccc21` [listing 2 of 2 here], in the data set with Huh-7 (huh-7, read-out: CC50), the CC50 stood at 11100 nM. The EC50 is 187 nM in the data set on Plasmodium falciparum [1] and 10.8 nM with Plasmodium falciparum [2].

On to `CN(C)c1ccc(C=CC=Cc2cc[n+](C)cc2)cc1`, for which the CC50 in the data set on Huh-7 (huh-7, read-out: CC50) is over 10000 nM. Moreover, the EC50 in the data set with Plasmodium falciparum [1] (Plasmodium falciparum, 3D7) was 640 nM; in the data set on Plasmodium falciparum [2] (Plasmodium falciparum, W2), 506 nM.

With `CCN1/C(=C/c2cccc[n+]2C)C=Cc2ccccc21`, the cytotoxic concentration (CC50) with Huh-7 (huh-7, read-out: CC50) is over 64500 nM. Moreover, the EC50 in the data set with Plasmodium falciparum [1] is 401 nM; with Plasmodium falciparum [1] (Plasmodium falciparum, 3D7), 667 nM; in the data set with Plasmodium falciparum [2] (Plasmodium falciparum, W2) it was 522 nM; in the data set on Plasmodium falciparum [2], 572 nM.

On to `C[n+]1c(C=CNc2ccccc2)n(-c2ccccc2)c2ccc(Cl)cc21` [listing 1 of 2 here], for which the CC50 in the data set on Huh-7 (huh-7, read-out: CC50) was over 10000 nM. Also, the results for the EC50 in the data set with Plasmodium falciparum [1] and in the data set with Plasmodium falciparum [2] were 182 nM and under 14.5 nM, respectively.

Consider `OC(CN1CCN(C/C=C/c2ccccc2)CC1)Cn1c2ccc(Cl)cc2c2cc(Cl)ccc21` (centres undefined), for which the CC50 entry in the data set on Huh-7 (huh-7) is reported as “No fit”. Further, the EC50 came to 660 nM in the data set with Plasmodium falciparum [1] (Plasmodium falciparum, 3D7) and 162 nM in the data set on Plasmodium falciparum [2] (Plasmodium falciparum, W2).

Regarding `CCN1/C(=C/c2cccc[n+]2C)C=Cc2cc(C)ccc21`, the CC50 in the data set on Huh-7 (huh-7, read-out: CC50) is over 100000 nM. Further, the EC50 in the data set with Plasmodium falciparum [1] is 803 nM; with Plasmodium falciparum [1] (Plasmodium falciparum, 3D7), 425 nM; in the data set on Plasmodium falciparum [2] (Plasmodium falciparum, W2), 596 nM; in the data set with Plasmodium falciparum [2], 959 nM.

For the molecule `Cc1nn(CC(O)Cn2c3ccc(Cl)cc3c3cc(Cl)ccc32)c(C)c1Br` (centres undefined), the CC50 result with Huh-7 (huh-7) is reported as “No fit”. Moreover, the EC50 with Plasmodium falciparum [1] (Plasmodium falciparum, 3D7) turned out to be 602 nM; in the data set on Plasmodium falciparum [2] (Plasmodium falciparum, W2), 190 nM.

For the molecule `COc1ccc(/C=C2/SC(=Nc3ccccc3)NC2=O)c(OC)c1`, the CC50 with Huh-7 (huh-7, read-out: CC50) is over 100000 nM. Moreover, the EC50 in the data set with Plasmodium falciparum [1] was determined as 660 nM; in the data set with Plasmodium falciparum [1] (Plasmodium falciparum, 3D7) it was 539 nM; in the data set with Plasmodium falciparum [2] (Plasmodium falciparum, W2), 428 nM; with Plasmodium falciparum [2], 250 nM.

`CC[n+]1c(C=CN(C)c2ccccc2)sc2ccc(OC)cc21`: the CC50 in the data set with Huh-7 (huh-7, read-out: CC50) was over 10000 nM. The EC50 worked out at 920 nM in the data set on Plasmodium falciparum [1] (Plasmodium falciparum, 3D7) and 400 nM with Plasmodium falciparum [2] (Plasmodium falciparum, W2).

In the case of `C[n+]1ccccc1C=Cc1cc(Br)ccc1O`, the CC50 in the data set on Huh-7 (huh-7, read-out: CC50) was over 10000 nM. Also, the EC50 with Plasmodium falciparum [1] (Plasmodium falciparum, 3D7) was 302 nM; in the data set with Plasmodium falciparum [2] (Plasmodium falciparum, W2), 441 nM.

With `CN1/C(=C/c2cccc[n+]2C)C=Cc2ccccc21`, in the data set with Huh-7 (huh-7, read-out: CC50), the CC50 is over 100000 nM. In addition, the EC50 is 557 nM in the data set with Plasmodium falciparum [1]; 446 nM in the data set on Plasmodium falciparum [1] (Plasmodium falciparum, 3D7); 526 nM with Plasmodium falciparum [2] (Plasmodium falciparum, W2); 779 nM in the data set with Plasmodium falciparum [2].

Consider `CCCCN1C(=Cc2cccc[n+]2C)Sc2cc(NC(C)=O)ccc21`, for which the CC50 with Huh-7 (huh-7, read-out: CC50) was over 10000 nM. Besides, the EC50 was over 1110 nM in the data set on Plasmodium falciparum [1] (Plasmodium falciparum, 3D7) and over 1250 nM with Plasmodium falciparum [2].

Regarding `Cc1cccc(N=C2NC(=O)/C(=C\c3ccc(N(C)C)cc3)S2)c1`, the CC50 with Huh-7 (huh-7, read-out: CC50) is over 100000 nM. Further, the EC50 with Plasmodium falciparum [1] was 1180 nM; with Plasmodium falciparum [1] (Plasmodium falciparum, 3D7), 784 nM; with Plasmodium falciparum [2], 1640 nM and 508 nM.

For the molecule `CCn1c(C=CN(C(C)=O)c2ccccc2)[n+](CC)c2cc(Cl)ccc21`, in the data set with Huh-7 (huh-7, read-out: CC50), the CC50 was over 100000 nM. Moreover, the EC50 was 2590 nM with Plasmodium falciparum [1] and 1580 nM in the data set on Plasmodium falciparum [2].

As for `C[n+]1c(C=CNc2ccccc2)n(-c2ccccc2)c2ccc(Cl)cc21` [listing 2 of 2 here], in the data set on Huh-7 (huh-7, read-out: CC50), the CC50 stood at 23800 nM. Also, the EC50 was found to be 534 nM with Plasmodium falciparum [1] and 318 nM in the data set with Plasmodium falciparum [2].

Regarding `CC1=C(C=CC(C)C=NNC(=O)c2ccncc2)C(C)(C)CCC1` (centres undefined), in the data set with Huh-7 (huh-7, read-out: CC50), the CC50 was over 100000 nM. For the same molecule, the EC50 was 1420 nM with Plasmodium falciparum [1]; 896 nM in the data set with Plasmodium falciparum [1] (Plasmodium falciparum, 3D7); 863 nM with Plasmodium falciparum [2] (Plasmodium falciparum, W2); 1110 nM in the data set with Plasmodium falciparum [2].

Regarding `C=CC[n+]1c(C=C2C=CC=CN2C)sc2ccccc21` [listing 1 of 2 here], the CC50 with Huh-7 (huh-7, read-out: CC50) was over 10000 nM. The EC50 in the data set with Plasmodium falciparum [1] (Plasmodium falciparum, 3D7) was 491 nM; in the data set with Plasmodium falciparum [2] it was over 1010 nM.

`CCN1C(=Cc2sc3ccccc3[n+]2C)C=Cc2cccc(C)c21`: the CC50 in the data set with Huh-7 (huh-7, read-out: CC50) stood at 27400 nM. Besides, the EC50 in the data set with Plasmodium falciparum [1] came out at 65.4 nM; with Plasmodium falciparum [2], 228 nM.

On to `C=CC[n+]1c(C=C2C=CC=CN2C)sc2ccccc21` [listing 2 of 2 here], for which the CC50 in the data set with Huh-7 (huh-7, read-out: CC50) was over 100000 nM. Further, the results for the EC50 with Plasmodium falciparum [1] and in the data set with Plasmodium falciparum [2] were 281 nM and 403 nM, respectively.

On to `COc1ccc2c(ccc(/C=C3\C=CC=CN3C)[n+]2C)c1`, for which, in the data set on Huh-7 (huh-7, read-out: CC50), the CC50 is over 100000 nM. In addition, the EC50 in the data set on Plasmodium falciparum [1] is 581 nM; with Plasmodium falciparum [1] (Plasmodium falciparum, 3D7), 316 nM; in the data set with Plasmodium falciparum [2] (Plasmodium falciparum, W2), 886 nM; with Plasmodium falciparum [2], 524 nM.

As to `CC[n+]1c(C=C2Sc3ccccc3N2CCO)sc2ccccc21`, in the data set on Huh-7 (huh-7, read-out: CC50), the CC50 is over 100000 nM. Moreover, the EC50 in the data set on Plasmodium falciparum [1] was found to be 336 nM; in the data set with Plasmodium falciparum [2] it was 511 nM.
